According to patent US20240417410A1, “TRICYCLIC COMPOUNDS FOR THE TREATMENT OF CANCER” (Hoffmann-La Roche Inc., priority 2023, published 2024):

Tests used:
[1] = test system: Miapaca-2 KRAS G12C + F156L; assay: Stable KRAS mutant cell line viability assay (CellTiter-Glo); format: cell-based; conditions: Miapaca-2 mutant cells, 3 d
Description: (§1) The aim of the study was to determine the potency and efficacy of compounds for cell proliferation using CellTiter-Glo® (CTG) Luminescent Cell Viability Assay (Promega Corp., Madison, WI). We cloned 14 KRAS^G12C variant sequences with secondary mutations (V8A, V9Y, S17E, T58I, A59T, S65W, R68S, D69P, M72I, D92R, H95N, Y96D, Q99W and F156L) into the Miapaca-2. Totally 14 stable Miapaca-2 mutant cell lines were established through lentivirus infection. For the cell viability assay, cells were dosed with compounds in a 9-point dose-response using a 4 fold dilution series at a top dose of 10 μM. KRAS mutant cells were maintained in DMEM+10% FBS+2.5% HI Horse serum+1% PS+1 μg/mL Puromycin and seeded into 96-well plates at 800-1,500 cells per well 24 h before compound addition and then incubated with compound for 3 d before assaying viability (CellTiter-Glo, Promega). Assays were performed in biological duplicates. Nonlinear regression curves were fitted using Xfit. IC50 (absolute IC50) is the dose at which the estimated viability is 50% relative to untreated wells.

[2] = test system: Miapaca-2 KRAS G12C + S17E; assay: as above; format: cell-based; conditions: Miapaca-2 mutant cells, 3 d
Description: as §1

[3] = test system: Miapaca-2 KRAS G12C + S65W; assay: as above; format: cell-based; conditions: Miapaca-2 mutant cells, 3 d
Description: as §1

[4] = test system: NCI-H1373-luc intracranial tumors; assay: Brain metastasis intracranial model, efficacy (bioluminescence); format: in vivo
Description: The purpose of this assay is to determine whether brain exposure of the compounds of current invention was sufficient to mediate regression of tumors in experimental Brain Metastases (BM) models.
NCI-H1373 cell line was purchased from the ATCC (CRL-5866). NCI-H1373-Luc cells were generated by WuXi AppTec. For generating NCI-H1373-Luc cell line, NCI-H1373 cells were transduced with GFP-Luc-puro lentivirus vector (HBLV-1014, HANBIO, carrying cDNA coding for firefly luciferase) and then selected with 1 μg/mL puromycin. All cells were authenticated by short tandem repeat fingerprinting, and periodically tested to be Mycoplasma free. H1373-luc cells were cultured in medium containing RPMI1640 (Thermo Fisher Scientific) plus 10% Fetal Bovine Serum (FBS, Thermo Fisher Scientific, 2.5 μg/mL puromycin and 1% Antibiotic-Antimycotic (Thermo Fisher Scientific), at 37° C. in an atmosphere of 5% CO2 in air. The medium was renewed every 2 to 3 days and tumor cells were routinely sub-cultured at a confluence of 80-90%. Cells growing in an exponential growth phase were harvested and counted for inoculation.
Murine studies were conducted at the WuXi AppTec and were performed in compliance with all applicable regulations and guidelines of the Institutional Animal Care and Use Committee (IACUC). Mice were maintained in a special pathogen-free environment and in individual ventilation cages, and food and water will be sterilized before use. 8 to 9 weeks female NU/NU nude mice (Charles River Lab.) were implanted intracarotid injection with 0.5×10^5 NCI-H1373-Luc cells in 100 μL serum-free media. When bioluminescence reached a mean of 1.28E+08 photons/second (range of 5.79E+07-2.685E+08 photons/second) at day 15 post inoculation, tumor-bearing mice were randomized into different groups with 4 mice in each group. The randomization date was denoted as treatment day 0. Afterwards, oral daily dosing of vehicle or Example 24 began and continued for 14 days. Baseline bioluminescent imaging (BLI) began 24 hours prior to initial dosing with vehicle or test articles, and additional imaging time points for all animals were measured twice a week by Xenogen machine (PerkinElmer IVIS Lumina II) between 0-14 days post grouping. […]
TGI (tumor growth inhibition) was calculated for each group using the formula: TGI (%)=[1−(Ti−T0)/(Vi−V0)]×100; Ti is the average tumor bioluminescence of a treatment group on a given day, T0 is the average tumor bioluminescence of the treatment group on the day of treatment start, Vi is the average tumor bioluminescence of the vehicle control group on the same day with Ti, and V0 is the average tumor bioluminescence of the vehicle group on the day of treatment start. […]

KRAS G12C-BRAF complex = KRAS G12C-BRAF complex (Homo sapiens (Human), UniProt P01116+P62937, G12C); assay: KRAS-BRAF with CYPA (500 nM) interaction assay (TR-FRET, Example 136); format: biochemical; conditions: KRAS G12C-BRAF disruption
Sequence of KRAS G12C-BRAF complex (P01116-2 other isoform, or with tags, fused parts or gaps G12C): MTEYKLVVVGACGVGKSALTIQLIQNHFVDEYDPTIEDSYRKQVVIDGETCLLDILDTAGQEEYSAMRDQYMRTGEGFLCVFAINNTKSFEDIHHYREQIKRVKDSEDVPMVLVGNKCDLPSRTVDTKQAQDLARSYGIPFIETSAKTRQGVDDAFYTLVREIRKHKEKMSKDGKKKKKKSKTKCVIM
Sequence of KRAS G12C-BRAF complex (P62937 whole entry): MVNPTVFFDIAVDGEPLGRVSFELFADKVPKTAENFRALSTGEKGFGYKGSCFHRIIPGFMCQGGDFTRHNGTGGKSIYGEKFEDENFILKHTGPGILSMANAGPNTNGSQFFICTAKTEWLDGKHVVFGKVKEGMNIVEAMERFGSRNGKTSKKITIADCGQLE

[5] = day 14, 30 mg/kg, PO, QD, NCI-H1373-luc intracranial

Compound: CO[C@@H](C)c1ncc(N2CCN(C)CC2)cc1-c1c2c3cc(cc4c3n1CCC4)-c1csc(n1)C[C@H](NC(=O)[C@H]1[C@H](C)[C@@H]1C)C(=O)N1CCC[C@H](N1)C(=O)OCC(C)(C)C2 (atropisomer, axis not shown; (M)) [Example 24, (1r,2R,3S)-N-[(7S,13S)-(20M)-20-[2-[(1S)-1-methoxyethyl]-5-(4-methylpiperazin-1-yl)-3-pyridyl]-17,17-dimethyl-8,14-dioxo-15-oxa-4-thia-9,21,30,31-tetrazahexacyclo[23.3.1.1^2,5.1^9,13.0^19,27.0^21,26]hentriaconta-1 (28),2,5 (31), 19,25 (29),26-hexaen-7-yl]-2,3-dimethyl-cyclopropanecarboxamide]
- IC50 [1]: 1 nM
- IC50 [2]: 3 nM
- IC50 [3]: 1 nM
- tolerability (overt toxicity, animal weight) ([4]; 30 mg/kg once daily for 14 days, NCI-H1373-luc intracranial model): no sign of overt toxicity or animal weight loss
- ROI [4, 5]: 1.34 ± 0.75 ×10^7 photon/s
- T/C [4, 5]: 0.52%
- TGI [4, 5]: 104.68%
- IC50 (KRAS G12C-BRAF complex): 9.7 nM
